Data on five compounds can be found in PubChem BioAssay (NCI).

Test systems include DMS 273 small cell lung; DLD-1 colon; M19-MEL melanoma; XF 498 CNS; SNB-78 CNS; KM20L2 colon; LXFL 529 NSCLC; MDA-N; RXF-631 renal.
Holding throughout (test): NCI anticancer screen, dose series, 48 h

Values joined by “and” are separate entries in the source; they are usually repeats but may differ in a detail not shown here. Equal entries are not always repeated.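 Compound exposure: 48 hours, 5 concentrations, 96-well plates. GI50: concentration for 50% inhibition of growth. TGI: concentration producing complete growth inhibition.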 Some results are limits rather than exact numbers.

Regarding `C[N+](C)(C)CC1CCCC(C[N+](C)(C)C)C1=O` (configuration not stated), the TGI came to 10.1 µM with DMS 273 small cell lung; 0.386 µM in the experiment on DLD-1 colon; 2.33 µM in the experiment with M19-MEL melanoma; 0.898 µM with XF 498 CNS; 5.88 µM in the experiment on SNB-78 CNS; 5.5 µM with KM20L2 colon. In addition, the TGI with LXFL 529 NSCLC turned out to be 0.392 µM; in the experiment with MDA-N, 9.44 µM; in the experiment with RXF-631 renal, 47.4 µM.

Turning to `CCC1(O)C(=O)OCc2c1cc1n(c2=O)Cc2cc3ccc(C=O)cc3nc2-1` (configuration not stated), the TGI in the experiment with DMS 273 small cell lung is 3.89 µM; in the experiment with DLD-1 colon it was above 100 µM; with M19-MEL melanoma, 19.8 µM; in the experiment on XF 498 CNS, 19.2 µM; with SNB-78 CNS, 98.2 µM; in the experiment on KM20L2 colon, above 50.3 µM. For the same compound, the TGI with LXFL 529 NSCLC is above 100 µM; in the experiment with MDA-N it was 23.7 µM and 36.4 µM; with RXF-631 renal, 31.7 µM. Besides, in the experiment with MDA-N, the GI50 was 3.9 µM.

On to `CC(=O)OC[C@]12CC[C@H]3[C@@H](C[C@H]4O[C@]45[C@@H](O)C=CC(=O)[C@]35C)[C@@H]1CC[C@@H]2[C@H](C)[C@H]1CC(C)=C(C)C(=O)O1`, for which the GI50 was 0.605 µM and 0.42 µM in the experiment on DMS 273 small cell lung; 0.273 µM and 0.129 µM with DLD-1 colon; 0.598 µM and 0.515 µM in the experiment with M19-MEL melanoma; 0.422 µM and 0.234 µM in the experiment with XF 498 CNS; 0.453 µM and 0.321 µM with SNB-78 CNS; 0.512 µM and 0.407 µM with KM20L2 colon. In addition, the GI50 was 0.347 µM and 0.219 µM with LXFL 529 NSCLC; 0.679 µM and 0.987 µM with RXF-631 renal. For the same compound, the TGI with DMS 273 small cell lung was 1.51 µM; in the experiment on DLD-1 colon, 0.649 µM and 0.31 µM; in the experiment on M19-MEL melanoma it was 2.32 µM; in the experiment on XF 498 CNS, 0.799 µM and 0.581 µM; in the experiment on SNB-78 CNS, 1.84 µM; in the experiment on KM20L2 colon, 0.829 µM and 1.44 µM. The TGI with LXFL 529 NSCLC worked out at 0.824 µM; in the experiment with RXF-631 renal it was 2.74 µM.

`COC(=O)c1cc(Br)c(Br)n1C`: the TGI with DMS 273 small cell lung, in the experiment with DLD-1 colon, in the experiment with M19-MEL melanoma, with XF 498 CNS, in the experiment with SNB-78 CNS and in the experiment with KM20L2 colon was above 100 µM each time. For the same compound, the TGI with LXFL 529 NSCLC and in the experiment with RXF-631 renal was above 100 µM throughout.

Regarding `CN/N=C(/CCN1CCCC1)CC(c1ccccc1)c1c(O)c2ccccc2oc1=O` (configuration not stated), the TGI in the experiment with DMS 273 small cell lung, in the experiment with DLD-1 colon, in the experiment with M19-MEL melanoma, with XF 498 CNS, in the experiment on SNB-78 CNS and in the experiment with KM20L2 colon was above 100 µM each time. Besides, the TGI in the experiment with LXFL 529 NSCLC, with MDA-N and in the experiment with RXF-631 renal was above 100 µM each time.
